This is an account of results in US12559732B2, “Compositions and methods for producing human milk oligosaccharides” (NORTH CAROLINA STATE UNIVERSITY, priority 2020, dated 2026).

Assay [1] deals with T1, Hamamotoa (Sporobolomyces) singularis β-hexosyl-transferase (BHT), truncated variant rBHT(23-594)-HIS (residues 1-22 removed); MFα-rBht(23-594)-HIS SEQ ID NO: 38 (Hamamotoa singularis, UniProt Q564N5).
T1 construct: codon-optimized gene
The assay is described as follows: Kinetics of ONP-Glu cleavage by purified soluble rBHT(23-594)-HIS. It is filed as biochemical. The following applies: 0.08-10.4 mM ONP-Glu, 20, 30, 42 and 55° C. An excerpt: (§1) K. pastoris Transformation and Expression. […] Expression and purification have been described previously.
(§2) Kinetic parameters of secreted soluble rBHT variants.

In assay [2] the target is Hamamotoa (Sporobolomyces) singularis β-hexosyl-transferase (BHT), truncated variant rBHT(32-594)-HIS (residues 1-31 removed); MFα-rBht(32-594)-HIS SEQ ID NO: 48 (Hamamotoa singularis, UniProt Q564N5). The assay is described as follows: Kinetics of ONP-Glu cleavage by purified soluble rBHT(32-594)-HIS. Type of assay: biochemical. To be noted: 0.08-10.4 mM ONP-Glu, 20, 30, 42 and 55° C.
From the text: as §1, §2

The target in assay [3] is T2, Hamamotoa (Sporobolomyces) singularis β-hexosyl-transferase (BHT), truncated variant rBHT(57-594)-HIS (residues 1-56 removed); MFα-rBht(57-594)-HIS SEQ ID NO: 52 (Hamamotoa singularis, UniProt Q564N5).
T2 sequence (Q564N5 57-594): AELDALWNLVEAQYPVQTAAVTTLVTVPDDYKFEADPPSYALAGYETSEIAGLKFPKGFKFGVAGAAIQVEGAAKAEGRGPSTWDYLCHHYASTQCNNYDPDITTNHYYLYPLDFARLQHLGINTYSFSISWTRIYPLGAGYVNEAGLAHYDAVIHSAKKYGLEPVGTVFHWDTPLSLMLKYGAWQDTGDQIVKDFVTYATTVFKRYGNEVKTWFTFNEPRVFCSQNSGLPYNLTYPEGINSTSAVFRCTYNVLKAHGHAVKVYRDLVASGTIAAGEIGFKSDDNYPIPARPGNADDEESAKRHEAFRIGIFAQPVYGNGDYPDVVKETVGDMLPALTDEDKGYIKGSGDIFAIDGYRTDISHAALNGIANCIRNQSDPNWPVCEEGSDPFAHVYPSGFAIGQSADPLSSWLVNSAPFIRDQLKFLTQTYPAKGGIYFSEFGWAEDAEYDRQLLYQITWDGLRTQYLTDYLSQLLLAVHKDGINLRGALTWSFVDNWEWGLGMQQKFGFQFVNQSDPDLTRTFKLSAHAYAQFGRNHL
The following applies: 0.08-10.4 mM ONP-Glu, 20, 30, 42 and 55° C.

Assay [4] concerns the target Hamamotoa (Sporobolomyces) singularis β-hexosyl-transferase (BHT), truncated variant rBHT(54-594)-HIS (residues 1-53 removed); MFα-rBht(54-594)-HIS SEQ ID NO: 50 (Hamamotoa singularis, UniProt Q564N5). The assay is described as follows: Kinetics of ONP-Glu cleavage by purified soluble rBHT(54-594)-HIS. It is filed as biochemical. To be noted: 0.08-10.4 mM ONP-Glu, 20, 30, 42 and 55° C.
From the text: as §1, §2

In assay [5] the test system is Hamamotoa (Sporobolomyces) singularis β-hexosyl-transferase (BHT, EC 3.2.1.21), native. The following applies: lactose concentrations above 20%; cited from earlier work.

As to `O=[N+]([O-])c1ccccc1O[C@@H]1O[C@H](CO)[C@@H](O)[C@H](O)[C@H]1O` [ONP-Glu], the “Km (affinity for the substrate ONP-Glu)” value in assay [1], in assay [2], in assay [3] and in assay [4] was “retain similar affinity for the substrate ONP-Glu (Km)” in each case. The “kcat (turnover activity, ONP-Glu)” value in assay [1] is “retain similar affinity for the substrate ONP-Glu (Km) and turnover activity (kcat)”; in assay [2], “retain similar affinity for the substrate ONP-Glu (Km) and turnover activity (kcat)”; in assay [3], “retain similar affinity for the substrate ONP-Glu (Km) and turnover activity (kcat)”; in assay [4] it was “retain similar affinity for the substrate ONP-Glu (Km) and turnover activity (kcat)”.
With `OC[C@H]1O[C@@H](O[C@H]2[C@H](O)[C@@H](O)C(O)O[C@@H]2CO)[C@H](O)[C@@H](O)[C@H]1O` (stereo partly drawn) [lactose], in assay [5], the inhibition by lactose entry is reported as “does not appear to be inhibited by lactose concentrations above 20%”.
